In PubChem BioAssay AID248 (DTP/NCI, 2004):
Inconclusive results and toxic doses are left out. Rule as the data show it: active = T/C of 150% or more; inactive = T/C below 125%.

System: L1210 leukemia ip in BDF1 mice, survival T/C
Assay: NCI In Vivo Anticancer Drug Screen. Data for tumor model L1210 Leukemia (intraperitoneal) in B6D2F1 (BDF1) mice
Conditions: endpoint: mean survival time, higher = longer survival
In short: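 Tumor was transplanted into mice, which were then dosed with test compound or vehicle alone. Survival was recorded for each group, and the treated figure was expressed relative to the control figure.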

[1] = dose: 100.0 mg/kg/injection, schedule: Q01DX009 (ip), vehicle: saline with Tween-80
[2] = dose: 100.0 mg/kg/injection, schedule: Q04DX003 (ip), vehicle: saline with Tween-80
[3] = dose: 200.0 mg/kg/injection, schedule: Q04DX003 (ip), vehicle: saline with Tween-80
[4] = dose: 100.0 mg/kg/injection, schedule: Q04DX002 (ip), vehicle: Klucel (hydroxypropylcellulose) (HPC)
[5] = dose: 200.0 mg/kg/injection, schedule: Q04DX002 (ip), vehicle: Klucel (hydroxypropylcellulose) (HPC)
[6] = dose: 400.0 mg/kg/injection, schedule: Q04DX002 (ip), vehicle: Klucel (hydroxypropylcellulose) (HPC)

Measured: T/C

Cc1ccc(S(=O)(=O)Oc2ccc3ccccc3c2)cc1
inactive: [1] 88 % of control | [2] 98 % of control | [3] 86 % of control | dose: 400.0 mg/kg/injection, schedule: Q04DX003 (ip), vehicle: saline with Tween-80 86 % of control

CCOc1cccc(OC(C)=O)c1
inactive: dose: 75.0 mg/kg/injection, schedule: Q01DX001 (ip), vehicle: carboxymethylcellulose (CMC) 103 % of control | dose: 150.0 mg/kg/injection, schedule: Q01DX001 (ip), vehicle: carboxymethylcellulose (CMC) 90 % of control

O=C(Nc1ccccc1)Oc1ccc(Cl)cc1Cl
inactive: [4] 104 % of control | [5] 110 % of control | [6] 96 % of control

O=C(NC1CCCCC1)Oc1ccc(Cl)cc1Cl
inactive: [4] 93 % of control | [5] 96 % of control | [6] 93 % of control

C=C(Cl)COC(=O)C(C)O (configuration not stated)
inactive: dose: 25.0 mg/kg/injection, schedule: Q01DX001 (ip), vehicle: Klucel (hydroxypropylcellulose) (HPC) 98 % of control | dose: 50.0 mg/kg/injection, schedule: Q01DX001 (ip), vehicle: Klucel (hydroxypropylcellulose) (HPC) 96 % of control | dose: 100.0 mg/kg/injection, schedule: Q01DX001 (ip), vehicle: Klucel (hydroxypropylcellulose) (HPC) 100 % of control

CC(=O)Nc1ccc(CC(=O)O)cc1
inactive: dose: 100.0 mg/kg/injection, schedule: Q01DX001 (ip), vehicle: saline with Tween-80 96 % of control | dose: 200.0 mg/kg/injection, schedule: Q01DX001 (ip), vehicle: saline with Tween-80 93 % of control | dose: 400.0 mg/kg/injection, schedule: Q01DX001 (ip), vehicle: saline with Tween-80 100 % of control

O=[N+]([O-])c1ccc(O)c(C=NCC2CCCC[N-]2)c1.O=[N+]([O-])c1ccc(O)c(C=NCC2CCCC[N-]2)c1.[Ni+2] (configuration not stated)
inactive: [2] 90 % of control | [3] 90 % of control

O=C1CCCCCC2CC12 (configuration not stated)
inactive: dose: 100.0 mg/kg/injection, schedule: Q04DX002 (sc), vehicle: olive oil, sesame oil, peanut oil 105 % of control | dose: 200.0 mg/kg/injection, schedule: Q04DX002 (sc), vehicle: olive oil, sesame oil, peanut oil 112 % of control | dose: 400.0 mg/kg/injection, schedule: Q04DX002 (sc), vehicle: olive oil, sesame oil, peanut oil 109 % of control

CC(/C=N/N=C(N)N)=N\NC(N)=S
inactive: dose: 15.0 mg/kg/injection, schedule: Q01DX Z (ip), vehicle: carboxymethylcellulose (CMC) 98 % of control | dose: 30.0 mg/kg/injection, schedule: Q01DX Z (ip), vehicle: carboxymethylcellulose (CMC) 101 % of control | dose: 30.0 mg/kg/injection, schedule: Q01DX Z (oral), vehicle: carboxymethylcellulose (CMC) 103 % of control | dose: 60.0 mg/kg/injection, schedule: Q01DX Z (ip), vehicle: carboxymethylcellulose (CMC) 111 % of control | dose: 60.0 mg/kg/injection, schedule: Q01DX Z (oral), vehicle: carboxymethylcellulose (CMC) 103 % of control | dose: 120.0 mg/kg/injection, schedule: Q01DX Z (ip), vehicle: carboxymethylcellulose (CMC) 114 % of control | dose: 120.0 mg/kg/injection, schedule: Q01DX Z (oral), vehicle: carboxymethylcellulose (CMC) 106 % of control | dose: 240.0 mg/kg/injection, schedule: Q01DX Z (oral), vehicle: carboxymethylcellulose (CMC) 105 % of control

CC12CCC(=O)C=C1CCC1C2C(=O)CC2(C)C1CCC2(O)C(=O)COC(=O)c1cc([N+](=O)[O-])cc([N+](=O)[O-])c1N1CC1 (configuration not stated)
inactive: dose: 60.0 mg/kg/injection, schedule: Q01DX015 (ip), vehicle: saline 94 % of control | dose: 90.0 mg/kg/injection, schedule: Q01DX015 (ip), vehicle: saline 96 % of control | dose: 135.0 mg/kg/injection, schedule: Q01DX015 (ip), vehicle: saline 92 % of control | dose: 200.0 mg/kg/injection, schedule: Q01DX015 (ip), vehicle: saline 100 % of control

O=C(c1cccs1)c1c(C(F)(F)F)oc2c(c1=O)C=CC2
inactive: dose: 100.0 mg/kg/injection, schedule: Q01DX001 (ip), vehicle: carboxymethylcellulose (CMC) 100 % of control | dose: 200.0 mg/kg/injection, schedule: Q01DX001 (ip), vehicle: carboxymethylcellulose (CMC) 87 % of control | dose: 400.0 mg/kg/injection, schedule: Q01DX001 (ip), vehicle: carboxymethylcellulose (CMC) 89 % of control

COC(=O)c1cc(=O)nc2n1C1OC(CO)C(O)C1O2 (configuration not stated)
inactive: dose: 100.0 mg/kg/injection, schedule: Q01DX001 (ip), vehicle: saline 95 % of control | dose: 200.0 mg/kg/injection, schedule: Q01DX001 (ip), vehicle: saline 101 % of control | dose: 400.0 mg/kg/injection, schedule: Q01DX001 (ip), vehicle: saline 93 % of control

CCCCOC(=O)C1OC1(C)c1ccc(C)cc1 (configuration not stated)
inactive: [1] 103 % of control | dose: 200.0 mg/kg/injection, schedule: Q01DX009 (ip), vehicle: saline with Tween-80 113 % of control | dose: 400.0 mg/kg/injection, schedule: Q01DX009 (ip), vehicle: saline with Tween-80 100 % of control

COc1cccc(NC(=S)Nc2ccccc2)c1
inactive: [4] 95 % of control | [5] 88 % of control | [6] 111 % of control
